Test results taken from patent publication EP1977759A1, “Pharmaceutical composition comprising a cytokine” (4SC AG, priority 2007, dated 2008).

Columns and labels:
[1] = tested on: bovine viral diarrhea virus (BVDV) NADL strain; test: BVDV antiviral efficacy evaluation, drug-drug combination analysis (checkerboard, MTS staining, MacSynergy II); assay type: cell-based; conditions: in combination with TNF-α; MDBK cells with BVDV virus; interaction by Bliss independence (MacSynergy II)
Description: (§1) The substances were solubilized in DMSO. […]
(§2) The bovine viral diarrhea virus (BVDV) NADL strain antiviral evaluation assay and drug-drug combination analysis was performed as described in Antimicro. Agents Chemother. 2003; 47: 2293-8. BVDV is frequently employed as a hepatitis C virus surrogate model in the study of antiviral agents (Antiviral Res. 2003; 60: 1-15). Madin-Darby bovine kidney cells were trypsinized, pelleted, counted and resuspended at 1×10^4/well in tissue culture medium in 96-well flat bottom, tissue culture plates in volume of 100µl per well. […]
(§3) At assay termination, the assay plates were stained with the soluble tetrazolium-based dye MTS (CellTiter Reagent Promega) to determine cell viability and quantify compound toxicity. MTS is metabolized y the mitochondrial enzymes of metabolically active cells to yield a soluble formazan product, allowing the rapid quantitative analysis of cell viability and compound cytotoxicity. […] Adhesive sealers were used in place of the lids, the sealed plate was inverted several times to mix the soluble formazan product and the plate was read spectrophotometrically at 490 nm and 650 nm with a Molecular Devices Vmax plate reader. […]
(§4) Theoretical additive values are calculated from the dose response curves for each substance used individually. […]

[2] = tested on: Madin-Darby bovine kidney cells; test: BVDV assay, cytotoxicity of the drug-drug combination (MTS staining for cell viability); assay type: cell-based; conditions: in combination with TNF-α; MDBK cells; interaction by Bliss independence (MacSynergy II)
Description: as §1, §2, §3, §4

## O=C(c1ccccc1)c1ccc2nc(NC(=O)c3csc(C4CCN(c5ncnc6ccsc56)CC4)n3)[nH]c2c1 [Compound 273, 2-(1-Thieno[3,2-d]pyrimidin-4-yl-piperidin-4-yl)-thiazole-4-carboxylic acid (5-b enzoyl-1H-benzaimidazol-2-yl)-amide]
[1]
  combined antiviral activity: highly synergistic behaviour
[2]
  combined cytotoxic activity: highly antagonistic behaviour
